Data reported in US20100130607A1, “NEUROPROTECTION IN DEMYELINATING DISEASES” (priority 2007, published 2010).
“Also recorded” adds a separate entry of the source. Where a name gives a salt, the structure may show the parent alone.

Tests used:
MOG-EAE in C57BL/6 mice [1] = assay: Clinical course (clinical score) of active MOG-EAE; assay type: in vivo; settings: oral, from day -20, up to 72 days p.i., vs methocel control
Description: Treatment started at day -20 before the injection of MOG. The following compounds were administered orally to three groups of mice as follows: 1) Ca-monomethyl fumarate 5 mg/kg body weight bid; 2) dimethyl fumarate 15 mg/kg body weight bid; 3) 0.08% methocel as control. For analyzing the clinical course, data was pooled from two experiments (one experiment with 6 mice and another with 8 mice per group yielding a total number of 14 mice per experimental group). Clinical evaluation-Symptoms were scored 1-10 on a daily basis as described in Linker et al., Nat. Med., 2002, […] (see also Hartung et al., Brain, 1988, 11, 1039-1059). Briefly, disease severity was scored as follows: 0, normal; 1, reduced tone of tail; 2, limp tail, impaired righting; 3, absent righting; 4, gait ataxia; 5, mild paraparesis of hindlimbs; 6, moderate paraparesis; 7, severe paraparesis or paraplegia; 8, tetraparesis; 9, moribund; 10, death. Relapses were defined as deterioration by 2 points or more within 2 days. […] Animals were pooled from two experiments (total number of 14 mice per group). Mice were followed until the late phase of the disease (72 days p.i.).

MOG-EAE in C57BL/6 mice [2] = assay: Blinded histological analysis of spinal cord in MOG-EAE, 72 days p.i.; assay type: in vivo; settings: oral, vs methocel control; for numbers of CD 3 positive T cells infiltrating the spinal cord / numbers of Mac-3 positive macrophages and microglia infiltrating the spinal cord: 72 days after induction of MOG-EAE; for axonal loss (relative axonal density) / level of demyelination (% white matter): spinal cord, 72 days p.i.
Description: Treatment started at day -20 before the injection of MOG. The following compounds were administered orally to three groups of mice as follows: 1) Ca-monomethyl fumarate 5 mg/kg body weight bid; 2) dimethyl fumarate 15 mg/kg body weight bid; 3) 0.08% methocel as control. For analyzing the clinical course, data was pooled from two experiments (one experiment with 6 mice and another with 8 mice per group yielding a total number of 14 mice per experimental group). Histology-One experiment was terminated on day 72 p.i. for histologic evaluation. At that time point, 6 mice in the MMF and 6 mice in the control group were available for analysis. The DMF group consisted of 4 mice (2 non-EAE related drop-outs). Mice were anesthetized with ether, bled and perfused with 25 ml Ringer solution and 10 ml of 4% paraformaldehyde in buffered PBS. Spinal cord was dissected out and fixed overnight in 4% paraformaldehyde in buffered PBS at 4° C. before embedding in paraffin. Paraffin sections were stained with hematoxylin and eosin for visualization of inflammatory infiltrates and Luxol fast blue for visualization of demyelination. Coded sections from cervical, thoracic and lumbar spinal cord were evaluated by a blinded observer by means of overlaying a stereological grid and counting mean CD3 and Mac-3 positive cells within 3 visual fields (each 0.096 mm^2) with the most intense pathology under a 400-fold magnification. The extent of demyelination was assessed by relating the number of grid squares with demyelination to the total number of grid squares containing white matter over an average of 8-10 independent levels of spinal cord per mouse. CD3, Mac-3 positive cells and APP positive axons were quantified on 3 representative sections, each one of cervical, thoracic and lumbar spinal cord by counting 2 defined areas with the most intense pathology under a 40-fold magnification. Histological evaluation was performed as described in Eugster et al., Eur. J. Immunol., 1999, […].

[3] = Ca-monomethyl fumarate 5 mg/kg bid

Compound | clinical score / disease course (MOG-EAE in C57BL/6 mice [1]; dimethyl fumarate 15 mg/kg body weight bid) | numbers of CD 3 positive T cells infiltrating the spinal cord (MOG-EAE in C57BL/6 mice [2]; dimethyl fumarate 15 mg/kg bid) | numbers of Mac-3 positive macrophages and microglia infiltrating the spinal cord (MOG-EAE in C57BL/6 mice [2]; dimethyl fumarate 15 mg/kg bid) | axonal loss (relative axonal density) (MOG-EAE in C57BL/6 mice [2]; dimethyl fumarate 15 mg/kg bid) | level of demyelination (% white matter) (MOG-EAE in C57BL/6 mice [2]; dimethyl fumarate 15 mg/kg bid) | clinical score / disease course (MOG-EAE in C57BL/6 mice [1]; Ca-monomethyl fumarate 5 mg/kg body weight bid) | numbers of CD 3 positive T cells infiltrating the spinal cord (MOG-EAE in C57BL/6 mice [2]; [3]) | numbers of Mac-3 positive macrophages and microglia infiltrating the spinal cord (MOG-EAE in C57BL/6 mice [2]; [3]) | axonal loss (relative axonal density) (MOG-EAE in C57BL/6 mice [2]; [3]) | level of demyelination (% white matter) (MOG-EAE in C57BL/6 mice [2]; [3])
COC(=O)/C=C/C(=O)OC [DMF, dimethyl fumarate, reference compound] | significantly milder disease course; also recorded: effective to reduce the clinical score up to 72 days p.i | not significantly different | not significantly different | reduced | reduced |  |  |  |  | 
COC(=O)/C=C/C(=O)O [MMF, Ca-monomethyl fumarate] |  |  |  |  |  | not sufficient to significantly affect the clinical score | not significantly different | not significantly different | reduced demyelination and axonal loss | reduced demyelination and axonal loss
